Data reported in patent US10471082B2, “Flavivirus protease inhibitors” (priority 2012, dated 2019).

Key:
DENV-2 protease = target: T1, DENV-2 protease (Dengue virus type 2, UniProt P14340); test: In vitro protease assay, DENV-2 NS2B-NS3pro; type: biochemical, Dengue virus serotype 2; settings: for inhibition at 10 µM: 10 μM inhibitor, read-out: % Inhib. DENV 2 Protease at 10 μM; for inhibition at 25 µM: 25 μM inhibitor, read-out: % Inhib. DENV 2 Protease at 25 μM; for IC50: substrate Bz-Nle-Lys-Arg-Arg-AMC, triplicate, read-out: IC50 DENV2
T1 construct: expression plasmids pQE30-NS2BH(QR)-NS3pro and WNV clone 107, respectively; made in house; host or cells: E. coli TOP10F' cells
Experimental: (§1) DENV-2 and WNV proteases were expressed from 2 L cultures of TOP10F′ cells (Invitrogen; Carlsbad, Calif.) transformed with expression plasmids pQE30-NS2BH(QR)-NS3pro and WNV clone 107, respectively. Cultures were grown in LB medium supplemented with ampicillin (100 μg/mL) and 0.1% glucose at 37° C. until the OD600 reached 0.6-0.7. The medium was then replaced with fresh LB-ampicillin with 1 mM IPTG. Expression was done at 20° C. for 16 h. Cells were then pelleted and either frozen or used immediately for purification using a Talon metal affinity resin (Clontech; Mountain View, Calif.).
(§2) A reaction mixture was prepared containing 200 mM Tris pH 9.5, 30% glycerol, 0.1% CHAPS detergent (to prevent non-specific aggregation of compounds), 50 nM DENV2QRpro enzyme and 10 μM Bz-Nle-Lys-Arg-Arg-AMC in each 30 μL reaction in duplicate 384-well plates. Aprotinin (2 μM) was used as a positive control. Compounds which inhibited the cleavage of the substrate by at least 50% were considered as positive hits. From the list of positive compounds, the highest scoring hits were selected for further analysis. […] Out of the 29 compounds, only 22 dissolved in DMSO at 5 mM. The activities of the 22 compounds were tested against DENV-2 and WNV proteases at 10 and 25 μM of the inhibitor concentration. […] A control containing only 2% DMSO and the substrate was used to achieve the minimum value of relative fluorescence units (RFU) for background subtraction. Compounds that reduced the protease activity by ≥70% were selected for further analysis.
(§3) Compound I, Compound II, Compound III, Compound IV, Compound V, Compound VI, and Compound VII were analyzed by in vitro protease assays. The compounds were tested for DENV-2 and WNV protease inhibition activity. All assays were done in triplicate in black 96-well plates. Protease activity experiments were performed in vitro using purified viral protease NS2B-N53-pro from DENV-2 or WNV. The reaction mixture of 100 μL/well contained 200 mM Tris pH 9.5, 30% glycerol, 27 nM WNV, 2% DMSO and fluorogenic tetra-peptide substrate Bz-Nle-Lys-Arg-Arg-AMC at concentrations that varied (0.05, 0.1, 0.5, 1, 2, 5, 10, and 25 μM). The percent activities after 30 min versus inhibitor concentration were plotted in GraphPad Prism v5.04 using the four-parameter nonlinear regression (Hill slope method).
(§4) In all assays, the inhibitor-enzyme complex was allowed to form by pre-incubation for 15 min at room temperature (RT) before addition of the substrate. After 5 min incubation, reactions were monitored by the release of free AMC, every 1.5 min for 30 min. The fluorescence emission was recorded at 465 nm following excitation at 385 nm using the Spectra Max Gemini EM (Molecular Devices; Silicon Valley, Calif.). The relative fluorescence units (RFU) were converted to absolute AMC product concentrations using Excel, where the data were transformed using the slope from the linear regression of the AMC calibration curve generated from the fluorescence values versus micromolar (μM) concentrations of free AMC. RFUs, obtained in a standard assay in the absence of inhibitors, were taken as 100% protease activity (or 0% inhibition), the background value (no protease) as 0% activity (or 100% inhibition). Kinetic values were determined using Microsoft Excel and GraphPad Prism 5 (La Jolla, Calif.).

WNV protease = target: T2, WNV protease (West Nile virus, UniProt Q9Q6P4); test: In vitro protease assay, WNV NS2B-NS3pro; type: biochemical; settings: for inhibition at 10 µM: read-out: % Inhib. WNV Protease at 10 μM; for inhibition at 25 µM: read-out: % Inhib. WNV Protease at 25 μM
T2 construct: purified viral protease NS2B-N53-pro from DENV-2 or WNV; made in house; host or cells: E. coli TOP10F' cells
Experimental: as §1, §2, §3, §4

Dengue virus = test: Plaque assay for anti-dengue viral activity; type: cell-based; settings: for EC50: Dengue virus, read-out: EC50 in virus replication; for virus titer: BHK 21 cells, MOI 1, 48 h, no-treatment 2×10^5
Source text: The efficacy of the compounds was also examined in cell-based assays performed in mammalian cells. Mammalian cells are the host for replication of the virus; a compound added to the growth medium of the mammalian cell in which a replicon RNA or dengue virus is replicating, the compound of interest could permeate the cell and interfere with the replication process. If there is a quantitative read-out of replication efficiency, the potency of the inhibitor compound could be evaluated in a quantifiable manner. There are two types of quantifiable assays available both employing mammalian cells; the first is the Baby Hamster Kidney (BHK) or monkey kidney (Vero) cells harboring DENV-2 or WNV replicon RNA, respectively, in a continuously replicating state and these are “stable replicon-expressing” cells. The second assay is infectivity assays in which mammalian cells are infected with DENV and the compound of interest is added at various concentrations and incubated. The inhibition of infectivity of the virus by the compound is measured by the extent of reduction of the titer of virus determined by plaque assay.
BHK 21 cells (1×10^5) were plated onto each well of 12 well-cell culture plate. […] One hour later, the Dengue virus was added (MOI:1). After an additional 48 hours, the supernatant was collected and tested by the plaque assay.
LLC-MK2 cells were plated at 2.5×10^5 cells per well in 6-well plates containing 2 ml culture medium and incubated overnight. Serially diluted supernatants from BHK21 cells treated with compounds at different concentrations as described above were incubated with cells in paired wells of six-well plates for 2 h. Cells were overlaid with 1× media containing 0.5% Sea-Kem GTG agarose (FMC Bioproducts; Philadelphia, Pa.) and were incubated for 7 days at 37° C. and visualized by staining with 0.01% neutral red solution overnight.

DENV-1 protease = DENV-1 protease (Dengue virus type 1, UniProt P17763); test: DENV-1 protease inhibition; type: biochemical, Dengue virus serotype 1
DENV-3 protease = DENV-3 protease (Dengue virus type 3, UniProt P27915); test: DENV-3 protease inhibition; type: biochemical, Dengue virus serotype 3
DENV-4 protease = DENV-4 protease (Dengue virus type 4, UniProt P09866); test: DENV-4 protease inhibition; type: biochemical, Dengue virus serotype 4
[1] = system: WNV replicon-expressing Vero cells; test: WNV replicon assay (Renilla luciferase); type: cell-based; settings: West Nile virus, 24 h
Source text: (§5) The efficacy of the compounds was also examined in cell-based assays performed in mammalian cells. Mammalian cells are the host for replication of the virus; a compound added to the growth medium of the mammalian cell in which a replicon RNA or dengue virus is replicating, the compound of interest could permeate the cell and interfere with the replication process. If there is a quantitative read-out of replication efficiency, the potency of the inhibitor compound could be evaluated in a quantifiable manner. There are two types of quantifiable assays available both employing mammalian cells; the first is the Baby Hamster Kidney (BHK) or monkey kidney (Vero) cells harboring DENV-2 or WNV replicon RNA, respectively, in a continuously replicating state and these are “stable replicon-expressing” cells. […] The inhibition of infectivity of the virus by the compound is measured by the extent of reduction of the titer of virus determined by plaque assay.
(§6) Both drug efficacy and cytotoxicity were measured using the same experimental plate. […] Cells were then washed with PBS and the luminescence signal from Renilla luciferase activity was read using the Renilla luciferase assay kit (Promega Corp; Fitchburg, Wis.) using a luminometer (Berthold Technologies, Inc.; Oak Ridge, Tenn.). […] The EC50 and CC50 values of selected compounds were calculated similar to IC50s using GraphPad Prism v5. […]

[2] = Cell viability (CellTiter Glo) in Vero-WNV cells; type: cell-based; settings: monkey, ATP production
Experimental: (§7) Both drug efficacy and cytotoxicity were measured using the same experimental plate. Prior to compound treatment, BHK21-DENV2 or Vero-WNV cells at […] were plated in 96-well plates with each well containing 10^4 cells. After 24 h incubation, the medium was replaced with 100 μL fresh medium containing different compound concentrations (0.5, 1, 2, 5, 10, and 25 μM) in triplicate wells. Cells were incubated again for 24 h. Cells were then washed with PBS and the luminescence signal from Renilla luciferase activity was read using the Renilla luciferase assay kit (Promega Corp; Fitchburg, Wis.) using a luminometer (Berthold Technologies, Inc.; Oak Ridge, Tenn.). Cell viability (CC50) was measured as amount of ATP production in viable (live) cells using a chemiluminescence detection method (CellTiter Glo kit from Promega Corp) using the Model LB960 luminometer (Berthold Technologies). The EC50 and CC50 values of selected compounds were calculated similar to IC50s using GraphPad Prism v5. Experiments were done in duplicates.

[3] = system: DENV2 replicon-expressing BHK21 cells; test: DENV2 replicon assay (Renilla luciferase); type: cell-based; settings: Dengue virus, DENV2, BHK-21
Source text: as §5, §6

[4] = Cell viability (CellTiter Glo) in BHK21-DENV2 cells; type: cell-based; settings: hamster, ATP production
Experimental: as §7
Following a similar protocol, the EC50 and CC50 values of Compounds III and V for inhibition of DENV2 replicon-expressing BHK21 cells and cell viability of those cells treated with Compounds III and V were determined.

T2 sequence (Q9Q6P4 1506-1683): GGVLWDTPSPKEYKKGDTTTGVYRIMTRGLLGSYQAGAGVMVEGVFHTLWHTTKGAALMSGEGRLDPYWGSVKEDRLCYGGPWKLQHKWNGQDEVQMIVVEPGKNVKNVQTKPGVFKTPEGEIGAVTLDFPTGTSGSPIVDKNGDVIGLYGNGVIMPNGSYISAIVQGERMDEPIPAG
T2 sequence (Q9Q6P4 1375-1505): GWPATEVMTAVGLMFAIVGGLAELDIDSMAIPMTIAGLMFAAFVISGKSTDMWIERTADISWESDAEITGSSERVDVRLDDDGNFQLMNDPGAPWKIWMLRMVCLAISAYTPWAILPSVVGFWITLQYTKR
T1 sequence (P14340 1476-1653): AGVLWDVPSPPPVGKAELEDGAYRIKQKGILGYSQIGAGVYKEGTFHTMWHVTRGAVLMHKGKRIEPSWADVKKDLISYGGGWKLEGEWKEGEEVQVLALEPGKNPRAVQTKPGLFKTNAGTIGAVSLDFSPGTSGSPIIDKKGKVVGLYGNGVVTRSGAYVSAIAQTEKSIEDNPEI
Chain of DENV-1 protease (P17763 1394-1440): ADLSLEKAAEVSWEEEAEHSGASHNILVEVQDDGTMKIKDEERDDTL
Chain of DENV-1 protease (P17763 1476-1653): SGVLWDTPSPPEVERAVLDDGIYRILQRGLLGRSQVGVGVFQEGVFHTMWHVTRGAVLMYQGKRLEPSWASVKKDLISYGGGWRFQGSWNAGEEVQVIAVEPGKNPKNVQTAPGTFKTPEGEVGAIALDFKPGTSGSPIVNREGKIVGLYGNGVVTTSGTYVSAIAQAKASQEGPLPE
Chain of DENV-3 protease (P27915 1474-1651): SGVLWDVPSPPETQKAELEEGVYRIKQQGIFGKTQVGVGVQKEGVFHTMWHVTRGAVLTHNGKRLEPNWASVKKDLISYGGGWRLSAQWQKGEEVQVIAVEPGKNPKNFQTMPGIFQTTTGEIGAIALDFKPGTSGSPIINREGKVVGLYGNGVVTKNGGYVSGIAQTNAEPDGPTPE
Chain of DENV-3 protease (P27915 1392-1438): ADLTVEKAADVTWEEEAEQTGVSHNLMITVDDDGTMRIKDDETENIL
Chain of DENV-4 protease (P09866 1475-1652): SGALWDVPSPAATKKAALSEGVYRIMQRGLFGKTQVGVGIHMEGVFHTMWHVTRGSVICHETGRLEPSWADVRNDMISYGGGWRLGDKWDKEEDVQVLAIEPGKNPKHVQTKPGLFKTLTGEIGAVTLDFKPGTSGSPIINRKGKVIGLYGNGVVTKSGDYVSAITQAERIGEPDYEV
Chain of DENV-4 protease (P09866 1393-1439): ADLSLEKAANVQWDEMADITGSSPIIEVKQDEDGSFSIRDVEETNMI

Compound | inhibition at 10 µM (DENV-2 protease) [%] | inhibition at 25 µM (DENV-2 protease) [%] | IC50 (DENV-2 protease) [µM] | IC50 (WNV protease) [µM] | inhibition at 10 µM (WNV protease) [%] | inhibition at 25 µM (WNV protease) [%] | EC50 (Dengue virus) [µM] | also measured
O=c1c(Oc2ccccc2)c(C(F)(F)F)oc2c(O)c(O)ccc12 [Compound IV] | 63 | 82 | 8.5 | 6.7 | 71 | 95 | < 20 | 
Cc1sc2nc(SCC(=O)c3ccc(O)c(O)c3)[nH]c(=O)c2c1C [Compound II] | 57 | 92 | 8.8 | 9.7 | 45 | 92 |  | inhibition of the virus titer (Dengue virus; 20 μM compound): did not show a significant inhibition
CCOC(=O)c1oc2c(O)c(O)ccc2c(=O)c1-c1cnn(-c2ccccc2)c1 [Compound V] | 75 | 86 | 4.8 | 4.3 | 75 | 95 |  | IC50 (DENV-1 protease): 6.4 ± 1.2 µM; IC50 (DENV-3 protease): 5 ± 1.4 µM; IC50 (DENV-4 protease): 5.32 ± 0.6 µM; EC50 [1]: 9.7 µM; CC50 at 24 h [2]: 168 µM; EC50 [3]: 11.7 µM; CC50 at 24 h [4]: 202 µM
O=C(OC[C@H]1OC(OC(=O)c2cc(O)c(O)c(OC(=O)c3cc(O)c(O)c(O)c3)c2)C(OC(=O)c2cc(O)c(O)c(OC(=O)c3cc(O)c(O)c(O)c3)c2)[C@@H](OC(=O)c2cc(O)c(O)c(OC(=O)c3cc(O)c(O)c(O)c3)c2)C1OC(=O)c1cc(O)c(O)c(OC(=O)c2cc(O)c(O)c(O)c2)c1)c1cc(O)c(O)c(OC(=O)c2cc(O)c(O)c(O)c2)c1 (some centres unmarked) [Compound VII, Tannic acid, reference compound] | 99 | 101 | 0.768 | 0.312 | 98 | 96 | < 5 | 
COCc1cc(C)nc(SCC(=O)c2ccc(O)c(O)c2)c1C#N [Compound I] | 51 | 89 | 10.5 | 9 | 54 | 95 |  | 
Cc1ccc(C(=O)c2cc(O)c(O)c([N+](=O)[O-])c2)cc1 [Compound VI, Tolcapone, reference compound] | 90 | 92 | 0.758 | 0.68 | 99 | 67 | < 5 | fold reduction of virus titer (Dengue virus; 5 μM compound): greater than 100 fold
Cc1ccc(C2=NC(=O)/C(=C/c3cc(O)c(O)c(Br)c3)S2)cc1 [Compound III] | 96 | 94 | 3.4 | 1.3 | 98 | 98 | < 10 | IC50 (DENV-1 protease): 5.99 ± 1.4 µM; IC50 (DENV-3 protease): 4.8 ± 1.1 µM; IC50 (DENV-4 protease): 3.92 ± 0.05 µM; EC50 [1]: 3.7 µM; CC50 at 24 h [2]: 130 µM; EC50 [3]: 7.2 µM; CC50 at 24 h [4]: 407 µM; fold reduction of virus titer (Dengue virus; 10 μM compound): 3.3 fold; virus titer (Dengue virus; 10 μM compound): 6×10^4 PFU/ml; fold reduction of virus titer (Dengue virus; 15 μM compound): 5 fold; virus titer (Dengue virus; 15 μM compound): 4×10^4 PFU/ml; fold reduction of virus titer (Dengue virus; 20 μM compound): 100 fold; virus titer (Dengue virus; 20 μM compound): 2×10^3 PFU/ml
